For series [1] the following is noted: healthy volunteers, Phase 1.
Series [2] relates to HERV-W Reverse-transcriptase (RT). The series is described as follows: Western blot of HERV-W pol-encoded Reverse-Transcriptase protein in CH1/CH2 cell cultures treated with GNbAC1 and/or AZT. Type of series: cell-based, Human. The conditions noted are these: CH1 and CH2 co-culture; AZT 1 μg/ml, GNbAC1 300 μg/ml; versus mock-treated cells. On the procedure: Human CH1 and CH2 cells (1:1) cells were co-cultured for optimizing the growth of CH2 cells and maintained in 6-well plates (CC7672-7506; CytoOne) at a density of 1.10^6 cell/well in IMDM medium (Ser. No. 12/440,053; Lifetech) supplemented with 10% fetal calf serum (Ser. No. 10/270,106; Invitrogen), 1% penicillin/streptomycin (P4333; Sigma) at 37° C. with 5% CO2. Cells were treated with i) AZT (1 μg/ml, A21-69; Sigma), ii) GNbAC1 (300 μg/ml, T950111-A; Polymun), iii) AZT+GNbAC1 or corresponding controls with GNbAC1 buffer [20 mM His, 5% Sucrose (w/v), 0.01% Tween 20 (w/v)].
CH1 and CH2 cells were resuspended in 200 μl of RIPA buffer (R0278, SIGMA) containing cOmplete® anti-phosphatase inhibitor cocktail (04 693 132001; Roche) and 0.05% LPG (326495-22-1; Avanti Polar) at 4° C., incubated for 2 hours at 26° C. on a rotating platform and centrifuged at 10000 g for 20 minutes at 26° C. Supernatant were collected and stored at −20° C.
Protein extracts were diluted (2:1) in 2× Laemmli buffer (Biorad) and heated for 5 minutes at 100° C. before loading. Proteins were separated by 7.5% sodium dodecyl sulfate-polyacrylamide gel electrophoresis (TGX, Biorad). Gels were run for a time period of 15 min at 120 mA in running buffer (Life Technologies). […] Protein of interest was detected with a colometric reaction (Opti 4-CN, Biorad), according to the provided protocol. […]

The subject of series [3] is HERV-W related transcripts (env and pol mRNA). The series is described as follows: HERV-W related transcripts levels by RT-qPCR in PBMC of MS patients treated with GNbAC1 (GNC002 Phase IIa trial). Type of series: in vivo, human. To be noted: for all HERV-W transcript levels compared to basal values at inclusion: at the 6th monthly GNbAC1 administration, relative expression to GUS B. On the procedure: The present GNC002 Phase IIa clinical trial was performed to assess the safety profile and the pharmacokinetics of GNbAC1 at 2 and 6 mg/kg in 10 MS patients. GNC002 consisted in a 12 months longitudinal study, in which GNbAC1 is administered on a monthly basis.
The present analysis was conducted on samples collected during the first 6 months of GNC002, where HERV-W related transcripts levels were assessed by real time quantitative polymerase chain reaction (RT-qPCR) in peripheral blood mononuclear cells (PBMC) of enrolled patients. HERV-W transcripts are assessed by different primers/probe sets as follows: MSRV-env, HERV-W-UNO, HERV-W-UNO2,
Briefly, the first step consisted in the extraction of total RNA from PBMC samples. Samples were PBMC isolated from blood collected on CPT tubes and frozen in 0.5 ml of DMSO 10% in Foetal Calf Serum. After thawing, PBMC samples were washed with ice-cold PBS and total RNAs were extracted with QIAamp RNeasy Mini Kit. Then, cDNAs were prepared by retro-transcribing all mRNA contained in previously extracted total RNAs. Quantitative PCRs were conducted on these cDNAs, with addition of an internal standard used as an inter-plate calibrator (allowing the standardization of the values throughout an experiment with multiple plates). Results were expressed as the relative expression of the targeted RNA (MSRV/HERV-W), by a ratio to the expression of GUS B RNA, a reference housekeeping gene with a stable expression level in MS population.
The Relative Expression of each targeted RNA within each sample is calculated as follows: Targeted RNA Relative Expression to GUS B=2^(Cq GUS B-Cq targeted RNA) Extraction Yields and Samples Exclusion
For each patient included in the study, PBMCs were isolated from blood sample at Day 1 (inclusion), Day 2, Day 8, Day 15, and Day 29. Afterwards, patients have received 5 additional monthly GNbAC1 administrations and PBMCs were isolated from blood sample before each infusion of antibody. Thus, the following results represent the variation of each HERV-W related transcript over the first 6 months of GNC002 study.
The second GNbAC1 administration occurred at different time points from Day 1, depending on patients. Thus, the mean variation of HERV-W related transcripts was assessed with blood samples collected before each GNbAC1 administration only.

Regarding “GNbAC1: humanized IgG4 monoclonal antibody directed against HERV-W/MSRV Envelope protein; heavy chain SEQ ID No: 9, light chain SEQ ID No: 10”, in series [1], the pharmacokinetics entry is listed as “linear” and the safety profile entry was “favorable”. Moreover, in series [2], the “HERV-W RT protein expression (Western blot signal)” value is given as “minor effects”. Further, the “all HERV-W transcript levels compared to basal values at inclusion” value in series [3] (2 mg/kg cohort, PBMC) was “decrease”. In addition, the “all HERV-W transcript levels compared to basal values at inclusion” value in series [3] (6 mg/kg cohort, PBMC) is given as “confirmed”. In addition, in series [3] (after three and six months of treatment), the “env mRNA and pol mRNA levels compared to levels before treatment” value was “parallel and progressive decrease”. Further, the “HERV-W pol mRNA level” value in series [3] (injected once a month over six months, PBMC, pol qPCR protocol) is “decrease is also marked”.
